Here are results for one molecule from publication PMC10517971, “An inverse agonist of orphan receptor GPR61 acts by a G protein-competitive allosteric mechanism” (Nature Communications, 2023).

The target in assay [1] is T1, HiBit-tagged wild-type GPR61 (Homo sapiens, UniProt Q9BZJ8).
T1 construct: expressed in transfected cells; host or cells: CHO-K1, transient (Fugene6)
Put plainly: Receptor expression studies (HiBit surface and total expression), CHO-K1 cells. Format: cell-based. To be noted: effect of compound, Fig. 2b, c. An excerpt:
(§1) The human GPR61 (reference sequence NM_031936.4) cDNA was synthesized and subcloned into pcDNA5/FRT/TO (Thermo Fisher, Pittsburgh, PA). The pcDNA5/FRT/TO/ human GPR61 plasmid was then transfected into the Flp-In™-CHO Cell Line (Thermo Fisher, Pittsburgh, PA) and a doxycycline-inducible clonal cell line was selected (CHO TREx hGPR61 WT). Sequences encoding untagged and HiBit/hemagglutinin (HA)-tagged versions of the wild-type human GPR61 were synthesized and cloned into pcDNA3.1. The HiBit ([…]) and HA ([…]) tags were sequentially included after the N-terminal initiator methionine. […]
(§2) Parental CHO-K1 cells were maintained at 37 °C in a humidified environment (5% CO2) and grown in Dulbecco’s Modified Eagle Medium (DMEM) F-12 media (Gibco, 11320033) supplemented with 10% FBS, 1% Glutamax (Gibco, 35050061) and 100units/ml penicillin and streptomycin (Gibco, 15140122. Cells were dissociated using a cell dissociation solution (Gibco, 13151-014), counted, and resuspended in complete culture media without antibiotics. Cells were then transiently transfected using Fugene6 (Promega) in a 384-well plate format (Corning, 3570). For each well, 7500 cells were transfected with 5 ng of receptor plasmid, 20 ng of carrier DNA (Promega, PAE4881) and 0.075 μl Fugene6 in a final volume of 25 μl. […]

Assay [2] has as its target Human PDE7B (Homo sapiens, UniProt Q9NP56). The assay can be described thus: Phosphodiesterase Assay (SPA). Format: biochemical.
Assay [3] deals with T2, human GPR61 N345A (Homo sapiens, UniProt Q9BZJ8, N345A).
T2 construct: expressed in transfected cells; host or cells: CHO-K1, transient (Fugene6)
The assay can be described thus: Functional cAMP assay (HTRF), transiently transfected CHO-K1 cells, GPR61 N345A mutant. It counts as cell-based. As to conditions: at up to 10 μM concentration.
Text: as §1, §2
For orientation: Cyclic AMP is a second messenger, typically raised through Gs and lowered through Gi signalling.

The target of assay [4] is Human PDE11A4 (Homo sapiens, UniProt Q9HCR9). Put plainly: Phosphodiesterase Assay (SPA). It counts as biochemical.
For assay [5], the target named is Human PDE1B1 (Homo sapiens, UniProt Q01064). Put plainly: Phosphodiesterase Assay (SPA). Format: biochemical.
Sequence of Human PDE1B1 (Q01064 whole entry): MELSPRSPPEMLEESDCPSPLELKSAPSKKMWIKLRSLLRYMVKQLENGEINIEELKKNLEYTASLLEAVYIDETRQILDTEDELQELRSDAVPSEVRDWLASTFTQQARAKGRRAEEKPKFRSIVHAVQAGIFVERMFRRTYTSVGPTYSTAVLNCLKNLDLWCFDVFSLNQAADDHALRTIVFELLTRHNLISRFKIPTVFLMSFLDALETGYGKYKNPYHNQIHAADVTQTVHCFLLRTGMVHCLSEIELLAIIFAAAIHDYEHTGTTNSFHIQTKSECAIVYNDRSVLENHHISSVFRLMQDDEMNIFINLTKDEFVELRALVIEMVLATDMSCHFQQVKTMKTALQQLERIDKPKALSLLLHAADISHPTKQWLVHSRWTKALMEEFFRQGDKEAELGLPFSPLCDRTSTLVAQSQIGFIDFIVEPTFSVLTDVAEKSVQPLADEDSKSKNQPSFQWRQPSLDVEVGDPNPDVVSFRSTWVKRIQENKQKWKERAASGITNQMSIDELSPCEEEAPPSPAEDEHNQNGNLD

T2 sequence (Q9BZJ8 whole entry N345A): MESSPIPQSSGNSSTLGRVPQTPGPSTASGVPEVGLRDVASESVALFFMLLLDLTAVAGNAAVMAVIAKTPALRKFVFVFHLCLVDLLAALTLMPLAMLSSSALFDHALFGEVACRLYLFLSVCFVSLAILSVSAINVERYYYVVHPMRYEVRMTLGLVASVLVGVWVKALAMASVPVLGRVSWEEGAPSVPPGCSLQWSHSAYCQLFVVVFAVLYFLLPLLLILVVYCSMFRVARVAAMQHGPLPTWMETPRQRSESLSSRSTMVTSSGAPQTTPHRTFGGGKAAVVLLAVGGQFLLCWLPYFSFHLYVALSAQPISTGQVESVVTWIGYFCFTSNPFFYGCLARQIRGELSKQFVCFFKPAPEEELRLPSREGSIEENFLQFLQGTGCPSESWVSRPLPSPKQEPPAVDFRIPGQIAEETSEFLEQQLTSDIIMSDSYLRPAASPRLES
Sequence of Human PDE11A4 (Q9HCR9 whole entry): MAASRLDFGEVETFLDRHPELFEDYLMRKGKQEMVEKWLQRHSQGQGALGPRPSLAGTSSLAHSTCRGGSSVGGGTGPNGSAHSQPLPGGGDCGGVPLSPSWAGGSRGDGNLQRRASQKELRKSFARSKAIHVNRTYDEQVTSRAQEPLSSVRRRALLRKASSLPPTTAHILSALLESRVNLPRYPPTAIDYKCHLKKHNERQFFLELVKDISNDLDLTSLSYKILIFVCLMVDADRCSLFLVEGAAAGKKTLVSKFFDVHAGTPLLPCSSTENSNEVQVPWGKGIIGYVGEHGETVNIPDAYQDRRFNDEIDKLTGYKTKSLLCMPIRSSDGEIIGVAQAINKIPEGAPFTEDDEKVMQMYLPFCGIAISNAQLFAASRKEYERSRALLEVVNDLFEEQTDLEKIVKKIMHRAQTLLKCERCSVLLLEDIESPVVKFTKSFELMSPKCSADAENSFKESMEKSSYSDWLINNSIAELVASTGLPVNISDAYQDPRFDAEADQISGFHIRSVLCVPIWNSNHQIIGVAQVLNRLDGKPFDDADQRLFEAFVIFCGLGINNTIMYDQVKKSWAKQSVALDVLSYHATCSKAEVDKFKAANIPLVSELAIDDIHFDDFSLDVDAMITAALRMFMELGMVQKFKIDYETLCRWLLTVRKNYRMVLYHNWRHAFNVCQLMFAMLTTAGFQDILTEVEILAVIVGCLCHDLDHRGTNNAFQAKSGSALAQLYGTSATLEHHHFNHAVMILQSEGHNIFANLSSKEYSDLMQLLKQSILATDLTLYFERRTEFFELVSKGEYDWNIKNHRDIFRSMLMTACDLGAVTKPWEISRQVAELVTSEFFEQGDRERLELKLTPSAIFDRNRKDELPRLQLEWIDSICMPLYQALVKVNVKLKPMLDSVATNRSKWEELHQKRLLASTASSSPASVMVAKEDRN
Sequence of Human PDE7B (Q9NP56 whole entry): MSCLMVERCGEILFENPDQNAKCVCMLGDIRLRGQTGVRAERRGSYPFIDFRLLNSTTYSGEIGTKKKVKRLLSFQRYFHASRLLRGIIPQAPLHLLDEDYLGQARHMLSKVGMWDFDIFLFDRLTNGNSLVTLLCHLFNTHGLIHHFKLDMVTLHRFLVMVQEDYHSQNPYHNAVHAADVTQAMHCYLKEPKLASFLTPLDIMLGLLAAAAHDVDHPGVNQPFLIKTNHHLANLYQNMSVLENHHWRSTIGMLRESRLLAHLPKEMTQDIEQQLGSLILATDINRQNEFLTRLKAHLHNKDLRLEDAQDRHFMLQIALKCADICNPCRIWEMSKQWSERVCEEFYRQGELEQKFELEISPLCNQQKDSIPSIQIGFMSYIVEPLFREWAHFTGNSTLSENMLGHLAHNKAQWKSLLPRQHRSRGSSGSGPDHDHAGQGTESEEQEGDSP
T1 sequence (Q9BZJ8 whole entry): as the sequence (Q9BZJ8 whole entry N345A) above, with A345N counted along it

In the case of `CCOc1cc(C)nc(N(CCOC)S(=O)(=O)c2ccc(NCc3c(F)cncc3F)nc2OC)n1` [Compound 1], the “cell surface expression of HiBit-tagged wild-type GPR61” value in assay [1] is reported as “increased”. In addition, the half-inhibitory concentration (IC50) (as a rule, the concentration needed to halve the response being measured) in assay [2] is 6.27 µM; in assay [4], over 40 µM; in assay [5] it was over 40 µM. In addition, the “sensitivity of the receptor to the compound in the cAMP assay” value in assay [3] is listed as “no sensitivity”.
